Results on 7 compounds are retold here after PMC7822874, “Chemoprotective antimalarials identified through quantitative high-throughput screening of Plasmodium blood and liver stage parasites” (Scientific Reports, 2021).

Converted amounts (≈) assume the structure as drawn. Where two headings read alike, the source gives them in different places.

The subject of data set [1] is P. falciparum Dd2 (clone B2) asexual blood stage parasites. Description: P. falciparum Dd2 asexual blood stage SYBR Green-I 72 h proliferation assay (qHTS). Type of data set: cell-based, Plasmodium falciparum. The settings on record: Plasmodium falciparum, DD2, 72 h, SYBR Green 72 h.
Data set [2] concerns P. falciparum Dd2 Cytb G131S. Put plainly: SYBR Green ABS proliferation assay, NCGC00374598 selected clone C11. In kind it is cell-based, Plasmodium falciparum. The settings on record: Plasmodium falciparum. The procedure, abridged: (§1)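 Proliferation of cytb-mutant Dd2 clones was measured by SYBR Green-I fluorescence at 72 h, normalized to controls.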
The test system of data set [3] is P. falciparum Dd2 Cytb V259L. Put plainly: SYBR Green ABS proliferation assay, NCGC00473217 selected clone F06. In kind it is cell-based, Plasmodium falciparum. Conditions: Plasmodium falciparum. The method, boiled down:
as §1

The subject of data set [4] is P. falciparum Dd2 Cytb A122D. Put plainly: SYBR Green ABS proliferation assay, NCGC00473217 selected clone F12. The settings on record: Plasmodium falciparum. Type of data set: cell-based, Plasmodium falciparum. The procedure, abridged: as §1
The subject of data set [5] is P. falciparum Dd2 Cytb F123L. Description: SYBR Green ABS proliferation assay, NCGC00473217 selected clone G08. Type of data set: cell-based, Plasmodium falciparum. The settings on record: Plasmodium falciparum. The procedure, abridged:
as §1

The nature of data set [6]: Aqueous solubility. In kind it is physicochemical. The settings on record: aqueous media. Here is the method: (§2) Pharmacokinetic modeling experiments, parallel artificial membrane permeability assay (PAMPA), solubility, and rat liver microsome stability assessment were performed on all synthetic compounds, as previously described[73]–[75].
Data set [7] in a line: Parallel artificial membrane permeability assay (PAMPA). In kind it is in vitro ADME. The settings on record: for PAMPA pH7.4: pH 7.4. As to the method:
as §2
On the technique in general: PAMPA measures passive passage across an artificial lipid membrane.

The nature of data set [8]: Rat liver microsomal stability (RLMS). Conditions: rat liver microsomes; for half-life: rat. As to the method: as §2
Background: Liver microsomes are a subcellular fraction often used to study metabolism.

Where [9] appears, read: WT Dd2-B2, read-out: AC50 Log[M] ± SD, Dd2-B2 (parental line) (converted).
[10] abbreviates: approximate value in μM, read-out: AC50 [μM], Dd2-B2 (parental line) (converted).
Where [11] appears, read: DD2, NCGC00374598 selected clone C11, read-out: AC50 [μM], Cytb G131S (converted).
The mark [12] stands for this setting: DD2, NCGC00374598 selected clone, read-out: AC50 Log[M] ± SD, Cytb G131S (converted).
[13] abbreviates: DD2, NCGC00473217 selected clone F06, read-out: AC50 [μM], Cytb V259L (converted).
[14] abbreviates: DD2, NCGC00473217 selected clone, read-out: AC50 Log[M] ± SD, Cytb V259L (converted).
[15] abbreviates: DD2, NCGC00473217 selected clone F12, read-out: AC50 [μM], Cytb A122D (converted).
Where [16] appears, read: DD2, NCGC00473217 selected clone, read-out: AC50 Log[M] ± SD, Cytb A122D (converted).
[17] abbreviates: DD2, NCGC00473217 selected clone G08, highest concentration 29 µM, read-out: AC50 [μM], Cytb F123L (converted).

As to `CCCN1C(CC(C)C)=NS(=O)(=O)c2cc(NC(=O)c3sccc3F)ccc21` [NCGC00523542], the AC50 is 1.58e-06 M in data set [1] (setting [9]); 1.59e-06 M in data set [1] (setting [10]); 1.78 µM in data set [2] (setting [11]); 1.78 µM in data set [2] (setting [12]); 5.43 µM in data set [3] (setting [13]); 5.37 µM in data set [3] (setting [14]). For the same compound, the concentration at half-maximal activity (AC50) in data set [4] (setting [15]) is 1.31 µM; in data set [4] (setting [16]), 1.32 µM; in data set [5] (setting [17]), greater than 29 µM. In data set [6], this compound yielded a solubility of less than 1 µg/mL. Also, the “PAMPA pH7.4” value in data set [7] was 770 1e-6 cm/s. In data set [8], this compound returned a half-life of 4.6 min.
On to `CC(C)CC1=NS(=O)(=O)c2cc(NC(=O)c3cccs3)ccc2N1C` [NCGC00521057], for which the AC50 in data set [1] (setting [9]) is 1.86e-06 M; in data set [1] (setting [10]), 1.85e-06 M; in data set [2] (setting [11]), 0.225 µM; in data set [2] (setting [12]), 0.224 µM; in data set [3] (setting [13]) it was greater than 29 µM; in data set [4] (setting [15]), greater than 29 µM. For the same compound, in data set [5] (setting [17]), the AC50 was greater than 29 µM. Also, the solubility in data set [6] came out at 1.6 µg/mL (≈ 4.24 µM). Also, the PAMPA permeability entry in data set [7] is on record as “low permeability”. The “PAMPA pH7.4” value in data set [7] is on record as 130 1e-6 cm/s. This compound also registered a half-life in data set [8] greater than 30 min.
`CCCN1C(CC(C)C)=NS(=O)(=O)c2cc(NC(=O)Nc3nccs3)ccc21` [NCGC00537523]: the AC50 in data set [1] (setting [9]) was 2.14e-06 M; in data set [1] (setting [10]) it was 2.16e-06 M; in data set [2] (setting [11]) it was 2.67 µM; in data set [2] (setting [12]), 2.69 µM; in data set [3] (setting [13]), 5.23 µM; in data set [3] (setting [14]) it was 5.25 µM. In addition, the AC50 in data set [4] (setting [15]) is 9.29 µM; in data set [4] (setting [16]), 9.33 µM; in data set [5] (setting [17]), 9.56 µM; in data set [5] (DD2, NCGC00473217 selected clone, read-out: AC50 Log[M] ± SD, Cytb F123L (converted)), 9.55 µM. In data set [6], this compound showed a solubility of 1.2 µg/mL (≈ 2.85 µM). For the same compound, the “PAMPA pH7.4” value in data set [7] was 113 1e-6 cm/s. Besides, the half-life in data set [8] is 7.8 min.
As to `CCCN1C(CC(C)C)=NS(=O)(=O)c2cc(NC(=O)c3sccc3C)ccc21` [NCGC00521035], the concentration at half-maximal activity (AC50) in data set [1] (setting [9]) is 1.58e-06 M; in data set [1] (setting [10]), 1.59e-06 M; in data set [2] (setting [11]), 1.65 µM; in data set [2] (setting [12]), 1.66 µM; in data set [3] (setting [13]), 6.84 µM; in data set [3] (setting [14]), 6.76 µM. Moreover, the AC50 in data set [4] (setting [15]) is 2.83 µM; in data set [4] (setting [16]), 2.82 µM; in data set [5] (setting [17]), greater than 29 µM. The solubility in data set [6] was less than 1 µg/mL. Besides, the “PAMPA pH7.4” value in data set [7] was 1597 1e-6 cm/s. Also, the half-life in data set [8] was determined as 3.4 min.
In the case of `CCCN1C(CC(C)C)=NS(=O)(=O)c2cc(NC(=O)c3ccc(F)s3)ccc21` [NCGC00523537], the AC50 was 1.12e-07 M in data set [1] (setting [9]); 1.13e-07 M in data set [1] (setting [10]); 0.317 µM in data set [2] (setting [11]); 0.316 µM in data set [2] (setting [12]); 0.894 µM in data set [3] (setting [13]); 0.891 µM in data set [3] (setting [14]). For the same compound, the AC50 is 0.797 µM in data set [4] (setting [15]), 0.794 µM in data set [4] (setting [16]) and greater than 29 µM in data set [5] (setting [17]). The compound also yielded a solubility in data set [6] of less than 1 µg/mL. The PAMPA permeability entry in data set [7] is given as “high permeability”. In data set [7], the “PAMPA pH7.4” value is given as 1480 1e-6 cm/s. In addition, in data set [8], the “RLMS T1/2” value is reported as “poor stability”. In data set [8], this compound yielded a half-life of 4.4 min.
Regarding `CC(C)CC1=NS(=O)(=O)c2cc(NC(=O)c3ccc(F)cc3)ccc2N1C` [NCGC00651713], the AC50 in data set [1] (setting [10]) is greater than 2.9e-05 M; in data set [2] (setting [11]), greater than 29 µM; in data set [3] (setting [13]) it was greater than 29 µM; in data set [4] (setting [15]), greater than 29 µM; in data set [5] (setting [17]) it was greater than 29 µM. For the same compound, in data set [6], the solubility is less than 1 µg/mL. Further, in data set [7], the “PAMPA pH7.4” value is <1 1e-6 cm/s. The half-life in data set [8] is greater than 30 min.
With `CCCN1C(CC2CCCCC2)=NS(=O)(=O)c2cc(NC(=O)c3ccc(F)cc3)ccc21` [NCGC00532335], the AC50 was 8.91e-07 M in data set [1] (setting [9]); 8.94e-07 M in data set [1] (setting [10]); 0.861 µM in data set [2] (setting [11]); 0.851 µM in data set [2] (setting [12]); greater than 29 µM in data set [3] (setting [13]); 3.31 µM in data set [4] (setting [15]). Further, the AC50 in data set [4] (setting [16]) is 3.31 µM; in data set [5] (setting [17]) it was greater than 29 µM. In data set [6], the solubility was less than 1 µg/mL. In data set [7], the “PAMPA pH7.4” value was <1 1e-6 cm/s. In data set [8], the half-life was greater than 30 min.

The AC50 is the concentration giving half of the maximal activity seen. For orientation: solubility means the dissolved amount per volume that the medium holds. For orientation: half-life means how long it takes for the measured level to halve.
